The text below walks through data of PubChem BioAssay (NCI).

Molecules are shown by their SMILES. “And” between values parts separate entries of the source, which are not always exact repeats. Equal values may be shown once.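 96-well plates; 48 h exposure; 5 concentrations. Endpoints by linear interpolation between flanking doses. Not reached: highest tested concentration assigned. The concentration for 50% growth inhibition is given as GI50. TGI denotes the concentration required for complete inhibition of growth.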 Some results are limits rather than exact numbers.

Holding throughout (assay): NCI-60 cell line screen, 48 h
The subject of test [1] is SNB-75 CNS.
For test [2], the system named is SK-MEL-5 melanoma.
For test [3], the system named is NCI/ADR-RES ovarian.
Test [4] deals with MCF7 breast.
Test [5] deals with SN12C renal.
The test system of test [6] is NCI-H23 lung.
Test [7] relates to HCC-2998 colon.
Test [8] has as its system A498 renal.
Test [9] has as its system KM12 colon.
Test [10] concerns RXF 393 renal.

Turning to `CN(C)CCCN1c2ccccc2Sc2ccc(Cl)cc21`, the GI50 in [1] is 4.63 µM and 6.09 µM; in [2], 1.71 µM and 1.77 µM; in test [3] it was 11.9 µM and 9.23 µM; in test [4], 3150 nM and 3460 nM; in [5], 3850 nM and 4870 nM; in [6], 8.92 µM and 13.3 µM. The GI50 in test [7] was 1.97 µM; in test [8], 10.5 µM and 3.46 µM; in test [9], 4.23 µM and 5.55 µM; in test [10], 3.16 µM and 2.85 µM. Moreover, the TGI in test [1] is 19.7 µM and 23 µM; in [2], 3.11 µM and 3.35 µM; in [3] it was 25.1 µM and 22.4 µM; in test [4] it was 12.6 µM and 13.7 µM; in test [5], 14.8 µM and 17.7 µM; in test [6] it was 22.2 µM and 27.6 µM. Further, the TGI was 4.14 µM in [7]; 23.7 µM and 16.6 µM in test [8]; 14.8 µM and 17.6 µM in test [9]; 12.2 µM and 11 µM in test [10].

In the case of `COc1ccccc1/C=C\C(=O)c1ccccc1`, the GI50 is 13.6 µM in [1]; 5.01 µM in test [2]; 4.38 µM in test [3]; 1920 nM in [4]; 9360 nM in [5]; 13.5 µM in test [6]. The GI50 in test [7] was 7.34 µM; in test [8], 16.3 µM; in [9] it was 2.79 µM; in test [10], 13 µM. In addition, the TGI in test [1] turned out to be 27 µM; in [2], 17 µM; in test [3] it was 24.3 µM; in [4], 12.6 µM; in test [5] it was 22.1 µM; in [6] it was 29.4 µM. Besides, the TGI in test [7] amounted to 19.9 µM; in test [8] it was 35.7 µM; in test [9], 6.32 µM; in [10], 27.4 µM.

In the case of `Cc1n(Cc2ccc3ccccc3c2)c(Cl)c(Cl)[n+]1Cc1ccc2ccccc2c1`, the GI50 in test [1] was 1.16 µM; in [2], 1.69 µM; in [3] it was 12 µM; in test [4] it was 1610 nM; in [5] it was 1620 nM; in test [6], 1.66 µM. The GI50 in [7] is 1.66 µM; in [8] it was 1.56 µM; in test [9], 1.71 µM; in test [10] it was 1.66 µM. Also, the TGI in test [1] worked out at 2.66 µM; in test [2] it was 3.08 µM; in test [3], 29.6 µM; in [4], 3.37 µM; in [5], 3.03 µM; in test [6], 3.86 µM. The TGI in test [7] worked out at 3.14 µM; in [8], 4.57 µM; in [9], 3.24 µM; in [10] it was 3.16 µM.

As for `COc1ccc(NC(=O)c2sc3nc4c(cc3c2N)CCCC4)cc1`, the GI50 in [1] was 0.342 µM; in test [2], 0.355 µM; in [3], 0.384 µM; in test [4], 348 nM; in test [5], 1430 nM; in test [6], 2.55 µM. Moreover, the GI50 in test [7] was 3.6 µM; in test [8], 0.237 µM; in [9] it was 0.612 µM; in [10], 0.452 µM. In addition, the TGI is 11.6 µM in [1]; 11 µM in test [2]; 3.85 µM in test [3]; more than 100 µM in test [4]; more than 100 µM in test [5]; more than 100 µM in test [6]. The TGI in [7] was more than 100 µM; in test [8], 1.73 µM; in test [9] it was 82.9 µM; in test [10] it was 4.72 µM.

`COc1ccc(/C=C/C(=O)C(C)(C)Br)cc1`: the TGI in test [2] was 31.4 µM; in test [3], more than 100 µM; in test [4], 19.1 µM; in test [5] it was 19.6 µM; in test [6], 6.04 µM; in [8] it was 37.1 µM. For the same compound, the TGI in [9] came to 55.1 µM; in test [10], 6.09 µM.

With `CC(=O)Oc1ccc(C2(c3ccc(OC(C)=O)cc3)C(=O)Nc3ccccc32)cc1`, the GI50 in test [1] is 17.2 µM and 23.8 µM; in test [2] it was 24.6 µM and 36.1 µM; in test [3], 1.16 µM and 1.8 µM; in test [4], 229 nM and 278 nM; in [5], 202 nM and 283 nM; in [6], 9.3 µM and 19.3 µM. Besides, the GI50 in [7] is 29.7 µM and 23.1 µM; in test [8], 24.6 µM and 26.8 µM; in test [9] it was 12.7 µM and 12.6 µM. In addition, the TGI in test [1] is 59 µM and > 79.9 µM; in [2], more than 100 µM; in [3], more than 100 µM; in test [4] it was more than 49.3 µM; in [5], more than 68.3 µM; in test [6] it was more than 100 µM. Also, the TGI in [7] is more than 100 µM; in test [8], > 76.1 µM and 89.8 µM; in [9] it was > 62.7 µM and 51.7 µM.

Consider `CCCCCCCCCCCCCCCCS(=O)(=O)c1ccc(NN)cc1`, for which the TGI in test [2], in test [3], in test [4], in test [5], in [6] and in test [7] was more than 10 µM each time. Besides, the TGI in test [8], in test [9] and in [10] was more than 10 µM each time.

Regarding `Cc1ccc(-n2c3c(c4c(CN5CCOCC5)c(O)ccc42)CCc2ccccc2C3=O)cc1`, the GI50 in test [2] was 76 µM; in test [3], 39.1 µM; in test [4] it was more than 100000 nM; in test [5], 46900 nM; in test [6], more than 100 µM; in test [7], more than 100 µM. In addition, the GI50 in [8] was more than 100 µM; in test [9], more than 100 µM; in test [10] it was 25.9 µM. For the same compound, the TGI in test [2], in [3], in [4], in test [5], in [6] and in test [7] was more than 100 µM in each case. The TGI in test [8], in test [9] and in test [10] was more than 100 µM each time.

On to `O=C(O)C1C2C=CC(O2)C1C(=O)Nc1ncccn1` (configuration not stated), for which the TGI in [1], in [2], in test [3], in [4], in test [5] and in test [6] was more than 100 µM throughout. Moreover, the TGI in test [8], in [9] and in test [10] was more than 100 µM each time.
